A short description of data set [1]: Rapid brain distribution assay (LC-MS/MS, brain tissue/plasma ratio). Format: in vivo. Particulars: mouse, ip, CD1 mice, intraperitoneal, grouped compounds, brain tissue and plasma taken one hour after administration, read-out: B/P. The method, then: The contents in plasma and tissue samples were measured by LC-MS/MS to obtain the ratio of the concentration in the brain tissue sample to that in the plasma sample, and compounds with blood-brain penetration could be quickly screened.
• 3.1. A group of compounds (usually 3-4 compounds, the molecular weight difference between each other was greater than 5), weighing 1-2 mg of each compound, were added into the same 4 mL weighing bottle. • 3.2. A mixed solvent of 10% DMSO+20% polyethylene glycol-15-hydroxystearate+70% H2O was used to prepare each group to a volume of 1.5 mL-2 mL. • 3.3. The mixture was ultrasonically vortexed until a homogeneous solution was obtained for intraperitioneal administration.
• 4.1. Three CD1 mice were prepared for each group and weighed. • 4.2. The administration volume was 10 mL/kg, and the mice were administered intraperitoneally. • 4.3. Timing was started after administration, and plasma samples and brain tissue samples were taken one hour later. • 4.4. The brain tissue sample was weighed, and then 4 fold volume of physiological saline was added. The resulting mixture was homogenized, and frozen at −20° C. until analysis.
• 5.1. The exact molecular weight of a compound was found from the compound information table. • 5.2. The corresponding parent ions and fragment ions were found, and the mass spectrometry condition and the liquid phase (chromatography) method were optimized to find the appropriate condition and method.
• 6.1. Plasma sample (5-fold dilution): 10 μL of the plasma sample was taken, and 40 μL of the blank plasma sample and 50 μL of the corresponding blank tissue sample were added. • 6.2 Tissue sample processing: 50 μL of the tissue sample (brain, kidney, liver and the like) was taken, and 50 μL of the blank plasma sample was added. • 6.3. The above tissue sample and the diluted plasma sample were taken, and 500 μL of the internal standard solution was added to precipitate the protein. The resulting mixture was vortexed for 2 minutes, stored by freezing at −20° C. for 1 hour and centrifuged at 3800 rpm for 15 minutes at 4° C. The supernatant was taken, 5-fold diluted with 50% MeOH, and then vortexed for 2 minutes, ready for measurement.
The sample was detected by using an appropriate LC-MS/MS method.
Distribution ratio of tissue/plasma=(peak area of compound in tissue/peak area of internal standard)/(peak area of compound in plasma/peak area of internal standard)

The subject of data set [2] is HT-29 human colon cancer cells. In words: In vitro biological activity assay: inhibition of TNFα/SmacM/Z_VAD FMK-induced programmed necrosis, CellTiter-Glo viability. Format: cell-based. Particulars: HT-29 cells, necrosis induced with TNF-α 100 ng/mL, SmacM 100 nM, Z_VAD-FMK 10 μM, overnight, cell viability by chemiluminescence. The method, then: In order to verify the inhibitory effect of the compounds of the present disclosure on programmed necrosis at the cellular level, a type of cells closely related to the RIP1 pathway, namely HT-29 human colon cancer cells, were selected. The used activation mode is a combination of tumor necrosis factor (TNFα), cysteine aspartate activator mimic (SmacM) and pan-caspase inhibitor Z_VAD FMK, and the cell viability was calculated by detecting chemiluminescence values, thus obtaining the biological activity of the compound inhibiting the programmed necrosis of cells.
Cell line: HT-29 (ATCC® HTB-38™)
• 2.1. The Growth Status of HT-29 Cells was Regularly Checked to Ensure their Normal Growth. • 2.2. McCOY's 5A culture medium containing 10% FBS was preheated in a 37° C. water bath for 30 minutes. When the culture medium was ready for use, the cell passage and inoculation was performed in a Class II safety cabinet with aseptic technique. • 2.3. In a T75 culture flask, when the growth density of cells reached the abundance of approximately 80%, the culture medium was aspirated and cells were washed twice with pre-warmed PBS. • 2.4. 2-3 mL of trypsin (Gibco, catalog number 25200-056) was added and the T75 culture flask was transferred to a 37° C. incubator. • 2.5. After 3-5 minutes, the side of the culture flask was tapped and examined under a microscope for detachment of the cells to the flask. If necessary, the cells were placed back into the incubator to wait for another 5-10 minutes until 85% of the cells were detached from each other. • 2.6. 6-9 mL of complete cell culture medium was quickly added to terminate the trypsin reaction, and then the cells were transferred to a sterile 15 mL centrifuge tube. The cells were pelleted by centrifugation at 300 g for 5-7 minutes in a centrifuge, and then the supernatant was decanted. • 2.7. The cells were resuspended in 10 mL of fresh cell culture medium and the cells were counted by using a hemocytometer. • 2.8. 3,000 cells contained in 100 μL were inoculated into each well of a sterile 96-well cell culture plate (Corning 3903) and cultured overnight at 37° C. under 5% CO2.
• 3.1. All batches of compounds were dissolved in dimethyl sulfoxide (DMSO) to prepare a 20 mM stock. • 3.2. 3 μL of 20 mM stock of each compound was added to 27 μL of DMSO and mixed thoroughly, and then diluted at a dilution ratio of […] (20 μL compound+40 μL DMSO) until the 10-12 points ended. After the compounds were diluted, they were set aside for use. • 3.3. The cell culture plate was taken out from the incubator, washed once with PBS, and replaced with a fresh culture medium free of serum. A mixture of TNF-α (100 ng/mL), SMAC mimic (SmacM, 100 nM) and Z_VAD-FMK (10 μM) was added to induce the programmed necrosis in HT-29 cells. • 3.4. The compound dilution plate was prepared, 0.5 μL of the diluted compound was added to the corresponding 96-well plate, and mixed gently. Two duplicate wells were prepared for each compound. • 3.5. The treated 96-well plate to which the compounds had been added was placed back into the 37° C. incubator containing 5% CO2 and incubated overnight.
The luminescence cell viability detection kit was used to calculate the activity of the compound by measuring the ATP content in viable cells. • 4.1. The CellTiter-Glo® buffer and dry powdered substrate were equilibrated to room temperature before use. • 4.2. The CellTiter-Glo® substrate was resuspended with Cell Titer-Glo® buffer, then homogeneously mixed by gently vortexing. • 4.3. The cell culture plate was taken out and equilibrated at room temperature for 10 minutes (usually not suitable if more than 30 minutes). • 4.4. 20 μL of enzyme/substrate mixture was added into the 96-well assay plate with a multi-channel pipettor. • 4.5. The 96-well assay plate was placed on a shaker and the content was mixed for 2-3 minutes to promote the cell lysis. • 4.6. […]

For data set [3] the following is noted: in vivo; cited from earlier work.
A further data set relates to human U937 cells. Particulars: read-out: IC50, blocking programmed necrosis; cited from earlier work.
The subject of another data set is TNF-induced shock model. Particulars: mice; cited from earlier work.
A further data set relates to mouse L929 cells. Particulars: read-out: IC50, blocking programmed necrosis; cited from earlier work.

Data on 20 compounds can be found in US20240391900A1, “RIP1 KINASE INHIBITOR AND USE THEREOF” (SIRONAX (BEIJING) CO., LTD., priority 2021, published 2024).

A word on the EC50: it is the concentration at which the effect is half-maximal. The IC50 is the midpoint of a concentration-inhibition curve.

As for `Nc1ncc(C#Cc2cncc(-n3cc4c(n3)C(c3ccccc3)CC4)c2)cn1` (stereo not shown) [Compound 38], in data set [1], the Kp at 1 h stood at 2.46. Moreover, the EC50 in data set [2] is at most 0.1 µM.
In the case of `Nc1ncc(C#Cc2cncc(-n3nc4c(c3Cl)CCC4c3ccccc3)c2)cn1` (stereo not shown) [Compound 39], in data set [1], the Kp at 1 h stood at 2.07. For the same compound, the EC50 in data set [2] is at most 0.1 µM.
For `Cc1c2c(nn1-c1cncc(C#Cc3cnc(N)nc3)c1)C(c1ccccc1)CC2` (stereo not shown) [Compound 40] the same measures were 1.61 and at most 0.1 µM.
For `Cc1ncc(C#Cc2cnc(N)nc2)cc1-n1cc2c(n1)C(c1ccccc1)CC2` (stereo not shown) [Compound 42, 5-((6-methyl-5-(6-phenyl-5,6-dihydrocyclopenta[c]pyrazol-2 (4H)-yl)pyridin-3-yl)ethynyl)pyrimidin-2-amine] the same measures were 2.45 and at most 0.1 µM.
For `Cn1cc(C#Cc2cnc(N)nc2)cc(-n2cc3c(n2)C(c2ccccc2)CC3)c1=O` (stereo not shown) [Compound 44] the same measures were 3.25 and at most 0.1 µM.
In the case of `Nc1ncc(C#Cc2cncc(-n3cc4c(n3)C(c3cccc(F)c3)CC4)c2)cn1` (stereo not shown) [Compound 45], in data set [1], the Kp at 1 h was 2.28. For the same compound, the concentration for a half-maximal effect (EC50) in data set [2] was at most 0.1 µM.
As to `Nc1ncc(C#Cc2cncc(-n3cc4c(n3)C(c3ccccc3)OC4)c2)cn1` (stereo not shown) [Compound 51, 5-(5-(6-phenyl-4H-furo[3,4-c]pyrazol-2 (6H)-yl)pyridin-3-ethynyl)pyrimidin-2-amine], the Kp at 1 h in data set [1] is 2.46. Moreover, in data set [2], the EC50 is at most 0.1 µM.
The matching figures for `Nc1ncc(C#Cc2cncc(-n3nc4n(c3=O)CCC4c3ccccc3)c2)cn1` (stereo not shown) [Compound 52, 2-(5-((2-aminopyrimidin-5-yl)ethynyl)pyridin-3-yl)-7-phenyl-2,5,6,7-tetrahydro-3H-pyrrolo[2,1-c][1,2,4]triazole-3-one]: 1.1 and at most 0.1 µM.
Regarding `Nc1ncc(C#Cc2cncc(-n3nc4c(n3)C(c3ccccc3)CC4)c2)cn1` (stereo not shown) [Compound 54, 5-((5-(4-phenyl-5,6-dihydrocyclopenta[d][1,2,3]triazol-2 (4H)-yl)pyridine-3-yl)ethynyl)pyrimidin-2-amine], the Kp at 1 h in data set [1] came to 1.44. Moreover, in data set [2], the EC50 was at most 0.1 µM.
In the case of `Nc1ncc(C#Cc2cncc(-n3nc4c(n3)[C@H](c3ccccc3)CC4)c2)cn1` [Compound 55, (S)-5-((5-(4-phenyl-5,6-dihydrocyclopenta[d][1,2,3]triazol-2 (4H)-yl)pyridin-3-yl)ethynyl)pyrimidin-2-amine], the Kp at 1 h in data set [1] is 2.61. Besides, in data set [2], the half-maximal effective concentration (EC50) was at most 0.1 µM.
The matching figures for `Nc1ncc(C#Cc2cncc(-n3nc4c(n3)[C@@H](c3ccccc3)CC4)c2)cn1` [Compound 56, (R)-5-((5-(4-phenyl-5,6-dihydrocyclopenta[d][1,2,3]triazol-2 (4H)-yl)pyridin-3-yl)ethynyl)pyrimidin-2-amine]: 1.2 and above 1 µM.
For `Cn1c(-n2nc3c(n2)C(c2ccccc2)CC3)cc(C#Cc2cnc(N)nc2)cc1=O` (stereo not shown) [Compound 57, 4-((2-aminopyrimidin-5-yl)ethynyl)-1-methyl-6-(4-phenyl-5,6-dihydrocyclopenta[d][1,2,3]triazol-2 (4H)-yl)pyridine-2 (1H)-one] the same measures were 2.16 and at most 0.1 µM.
Regarding `Cc1ncc(C#Cc2cnc(N)nc2)cc1-n1nc2c(n1)C(c1ccccc1)CC2` (stereo not shown) [Compound 58, 5-((6-methyl-5-(4-phenyl-5,6-dihydrocyclopenta[d][1,2,3]triazol-2 (4H)-yl)pyridin-3-yl)ethynyl)pyrimidin-2-amine], the Kp at 1 h in data set [1] worked out at 2.93. Also, the EC50 in data set [2] was at most 0.1 µM.
The matching figures for `Nc1ncc(CCc2cncc(-n3cc4c(n3)[C@H](c3ccccc3)CC4)c2)cn1` [Compound 61, (S)-5-(2-(5-(6-phenyl-5,6-dihydrocyclopenta[c]pyrazol-2 (4H)-yl)pyridin-3-yl)ethyl)pyrimidin-2-amine]: 1.17 and at most 0.1 µM.
For `Cn1c(-n2nc3c(n2)C(c2cccnc2)CC3)cc(C#Cc2cnc(N)nc2)cc1=O` (stereo not shown) [Compound 62] the same measures were 0.388 and at most 0.1 µM.
The matching figures for `Nc1ncc(C#Cc2cncc(-n3nc4c(n3)C(c3cc(F)cc(F)c3)CC4)c2)cn1` (stereo not shown) [Compound 63, 5-((5-(4-(3,5-difluorophenyl)-5,6-dihydrocyclopenta[d][1,2,3]triazol-2 (4H)-yl)pyridin-3-yl)ethynyl)pyrimidin-2-amine]: 3.77 and at most 0.1 µM.
With `Cn1c(-n2nc3c(n2)C(C2CCCCC2)CC3)cc(C#Cc2cnc(N)nc2)cc1=O` (stereo not shown) [Compound 65, 4-((2-aminopyrimidin-5-yl)ethynyl)-6-(4-cyclohexyl-5,6-dihydrocyclopenta[d][1,2,3]triazol-2 (4H)-yl)-1-methylpyridin-2 (1H)-one], the Kp at 1 h in data set [1] is 1.12. Besides, in data set [2], the EC50 was at most 0.1 µM.
The matching figures for `Cc1ncc(C#Cc2cn[nH]c2)cc1-n1nc2c(n1)C(c1ccccc1)CC2` (stereo not shown) [Compound 66, 2-(5-((1H-pyrazole-4-yl)ethynyl)-2-methylpyridin-3-yl)-4-phenyl-2,4,5,6-tetrahydrocyclopenta[d][1,2,3]triazole]: 3.62 and at most 0.1 µM.
Consider `CN1C(=O)[C@@H](NC(=O)c2nnc(Cc3ccccc3)[nH]2)COc2ccccc21` [GSK2982772], for which the brain tissue distribution entry in data set [3] is reported as “low brain tissue distribution”.
Turning to `CC(C)(C)C(=O)N1N=CC[C@H]1c1ccccc1` [GSK′963], the half-inhibitory concentration (IC50) in the data set on human U937 cells was 0.004 µM; in the data set on mouse L929 cells, 0.001 µM. The effect on hypothermia result with TNF-induced shock model was “effectively inhibit hypothermia”.
